# Reference: PMC11869560, “Anticancer and cancer preventive activities of shogaol and curcumin from Zingiberaceae family plants in KG-1a leukemic stem cells” (BMC Complementary Medicine and Therapies, 2025)
# Tests used:
# [1] = tested on: IL-2 production in PHA-activated PBMCs; assay: IL-2 production in PHA-activated PBMCs (ELISA); type: cell-based, human; details: IC20 concentration, 2 h pre-treatment then 20 µL/mL PHA 24 h
# Description: For the measurement of interleukin-2 (IL-2), human PBMCs were pre-treated with plant extracts and active compounds at the IC20 concentration (Table S9) or 1 µg/mL of dexamethasone (positive control) in a 24-well plate for 2 h. Subsequently, 20 µL/mL of phytohemagglutinin (PHA) (Cat. No. 10576015, Thermo Fisher Scientific, MA, USA) was added to each well, and the cells were incubated for an additional 24 h. After that, supernatants were collected, and the levels of IL-2 were measured by the Human IL-2 Uncoated ELISA Kit (Invitrogen™, ThermoFisher Scientific, MA, USA), according to the manufacturer’s instructions.
# (§1) The percentage of NO or cytokine inhibitions were calculated using the following equation: […]
# (§2) where A is the level of cytokine or NO without treatment, and B is the level of cytokine or NO with treatment.
# [2] = tested on: TNF-α production in LPS-activated RAW264.7 cells; assay: TNF-α production in LPS-activated RAW264.7 cells (ELISA); type: cell-based, mouse; details: IC20 concentration, 2 h pre-treatment then 1 µg/mL LPS 24 h
# Description: (§3) For the measurement of tumor necrosis factor-alpha (TNF-α) and NO, RAW264.7 cells were pre-treated with plant extracts and active compounds at a non-cytotoxic dose (IC20) (Table S9) or 1 µg/mL of dexamethasone (positive control) in a 24-well plate for 2 h. Subsequently, 1 µg/mL of lipopolysaccharide (LPS) (Cat No. 00497693, Invitrogen™, MA, USA) was added to each well, and the cells were incubated for an additional 24 h to allow sufficient time for the compounds to exert measurable anti-inflammatory effects while maintaining cell viability. Afterward, supernatants were collected, and the levels of TNF-α and NO were measured using the Mouse TNF alpha Uncoated ELISA Kit (Invitrogen™, ThermoFisher Scientific, MA, USA) and the Total Nitric Oxide Assay Kit (Invitrogen™, ThermoFisher Scientific, MA, USA), respectively, according to the manufacturer’s instructions.
# as §1, §2
# [3] = tested on: NO production in LPS-activated RAW264.7 cells; assay: NO production in LPS-activated RAW264.7 cells; type: cell-based, mouse; details: IC20 concentration, 2 h pre-treatment then 1 µg/mL LPS 24 h
# Description: as §3, §1, §2
structure (smiles),measurement,setting,value
"CCCCC/C=C/C(=O)CCc1ccc(O)c(OC)c1 [Shogaol, shogaol]",inhibition of IL-2 release,[1],80.04 ± 4.82%
same,inhibition of TNF-α release,[2],24.41 ± 0.99%
same,inhibition of NO release,[3],46.46 ± 3.71%
